From paper PMC11697113, “The Hsc70 system maintains the synaptic SNARE protein SNAP-25 in an assembly-competent state and delays its aggregation [drawing 1]” (The Journal of Biological Chemistry, 2024)

Target: T1, Hsc70 (Homo sapiens, UniProt P11142)
T1 construct: 6X His-tag (TEV-cleavable) (cleaved yes); made in house; host or cells: E. coli Rosetta (DE3)
Experiment: SNAP-25 cellulose-bound peptide array probed with Hsc70
Type: binding
Conditions: Hsc70 100 nM, 1 h, 25 °C; for Hsc70 binding of the SNAP-25 sequence in the peptide array: ADP/ATP, anti-Hsc70 chemiluminescence
Text: To explore in greater depth the binding sites for Hsc70 in SNAP-25, we screened a cellulose-bound peptide array spanning the full SNAP-25 sequence with 13-residue long peptides, overlapping by ten residues, and probed with Hsc70 in the presence of a two-fold excess of ATP and […] of ADP. The binding of Hsc70 to sites in the array was then visualized with an anti-Hsc70 primary antibody and a horse radish peroxidase-tagged secondary antibody to enable visualization by chemiluminescence (Fig. 4A). To quantitatively analyze the array, we used ImageJ (https://imagej.net/ij/) and plotted the intensity under the area for each spot. […] One site is located in the SNN, one in the LOOP, and one in the LOOP-SNC region (called SNC site) (Fig. 4A) […] (Fig. 1C). […] The binding site in the LOOP region is very close to the cysteine residues that become palmitoylated as SNAP-25 moves to its membrane-localized state. It is formally possible that Hsc70 binds to SNAP-25 in the initial un-palmitoylated state and dissociates upon palmitoylation and association with the plasma membrane. However, it can be assumed that the binding of this region to Hsc70 is not implicated in the events directly preceding SNARE complex assembly, as it will not be accessible to the chaperone. Therefore, we posit that chaperone binding to the SNN and SNC regions plays a mechanistic role in facilitating productive SNAP-25 association with the other SNARE proteins.
B, quantification of the spots from Figure 4A using ImageJ (Hsc70 (gray) and Hsc70-CSPαJ (dark gray)). Signals corresponding to SNN, Loop and Loop-SNC peptides are marked in orange, blue, and green, respectively. Orange, blue, and green lines at the top of the graph indicate the SNN, Loop and SNC regions, respectively. C, schematic representation of SNAP-25 showing the Hsc70 binding sequences (SNN (orange), Loop (black), and Loop-SNC (green)) identified in the peptide array. […]
A peptide array of SNAP-25 was obtained from CEM corporation. […] The chemiluminescence was captured in a G-box (Syngene), and the images were analyzed using ImageJ.

T1 sequence (P11142 whole entry): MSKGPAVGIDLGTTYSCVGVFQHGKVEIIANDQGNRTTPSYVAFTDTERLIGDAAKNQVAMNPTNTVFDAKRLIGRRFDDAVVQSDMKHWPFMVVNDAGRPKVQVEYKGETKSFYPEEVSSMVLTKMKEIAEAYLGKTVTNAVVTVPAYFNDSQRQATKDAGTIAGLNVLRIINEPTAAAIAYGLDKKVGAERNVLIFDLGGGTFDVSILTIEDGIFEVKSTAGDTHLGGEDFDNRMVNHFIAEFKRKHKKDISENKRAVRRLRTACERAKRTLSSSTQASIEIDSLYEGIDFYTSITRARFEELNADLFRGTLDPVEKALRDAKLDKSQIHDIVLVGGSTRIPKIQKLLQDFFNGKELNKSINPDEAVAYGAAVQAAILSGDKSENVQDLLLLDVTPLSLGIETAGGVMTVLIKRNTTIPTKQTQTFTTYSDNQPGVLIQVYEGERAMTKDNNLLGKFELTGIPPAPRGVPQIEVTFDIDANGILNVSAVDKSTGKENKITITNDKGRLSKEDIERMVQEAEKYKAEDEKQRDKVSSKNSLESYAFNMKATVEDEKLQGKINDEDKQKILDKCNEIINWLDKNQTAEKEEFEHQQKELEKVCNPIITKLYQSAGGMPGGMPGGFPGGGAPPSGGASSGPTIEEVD

| Substance | Hsc70 binding of the SNAP-25 sequence in the peptide array | number of major Hsc70 binding sites on SNAP-25 (13-residue peptides overlapping by ten, 20 μM ADP, 200 nM ATP, ECL, ImageJ, sites in SNN, LOOP and LOOP-SNC) |
| --- | --- | --- |
| EREQMAISGGFIRR [SNCP, peptide … from the LOOP-SNC domain of SNAP-25] | strong binding | – |
| RRMLQLVEESK [SNNP, peptide … from the SNN domain of SNAP-25] | strong binding | – |
| synaptosomal-associated 25 kDa protein [SNAP-25] | – | Three major Hsc70 binding sites |
